Assay results as given in publication PMC4063337, “Structure–Activity Relationships of Quinoxaline-Based 5-HT3A and 5-HT3AB Receptor-Selective Ligands” (Chemmedchem, 2013).

Key:
[1] = target: T1, 5-HT3A receptor (Homo sapiens, UniProt P46098); test: [3H]granisetron competition binding, HEK293 membranes; conditions: for Ki: read-out: pKi (A) (converted); for pKi (A): 0.7 nM [3H]granisetron, 10 mM HEPES pH 7.4, 4 °C, at least 24 h
T1 construct: gene HTR3A; homomeric (pentameric) receptor expressed recombinantly in HEK293 cells; cell membranes
T1 sequence (P46098 24-478): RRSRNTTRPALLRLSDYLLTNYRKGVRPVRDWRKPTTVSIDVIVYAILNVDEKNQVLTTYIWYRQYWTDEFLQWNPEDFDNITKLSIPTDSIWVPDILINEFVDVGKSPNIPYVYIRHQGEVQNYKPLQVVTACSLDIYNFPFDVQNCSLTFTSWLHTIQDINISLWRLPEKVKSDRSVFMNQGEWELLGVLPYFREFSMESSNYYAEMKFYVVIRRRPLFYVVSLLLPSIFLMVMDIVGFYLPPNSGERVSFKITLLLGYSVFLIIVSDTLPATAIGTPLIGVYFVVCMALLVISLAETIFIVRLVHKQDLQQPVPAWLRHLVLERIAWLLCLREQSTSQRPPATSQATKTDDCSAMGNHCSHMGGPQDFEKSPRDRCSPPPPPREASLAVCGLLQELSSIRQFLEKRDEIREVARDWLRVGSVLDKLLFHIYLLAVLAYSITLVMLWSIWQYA
Excerpt: [3H]granisetron competition binding, HEK293 membranes on 5-HT3A receptor

[2] = target: T2, 5-HT3AB receptor (Homo sapiens, UniProt O95264+P46098); test: as above; conditions: for Ki: read-out: pKi (AB) (converted)
T2 construct: gene HTR3A; heteromeric (pentameric) receptor expressed recombinantly in HEK293 cells; cell membranes; sites at A+A- and possibly A+B- interfaces; with 5-hydroxytryptamine receptor 3B
T2 sequence (P46098 24-478): T1 sequence (P46098 24-478)
T2 sequence (O95264 22-441): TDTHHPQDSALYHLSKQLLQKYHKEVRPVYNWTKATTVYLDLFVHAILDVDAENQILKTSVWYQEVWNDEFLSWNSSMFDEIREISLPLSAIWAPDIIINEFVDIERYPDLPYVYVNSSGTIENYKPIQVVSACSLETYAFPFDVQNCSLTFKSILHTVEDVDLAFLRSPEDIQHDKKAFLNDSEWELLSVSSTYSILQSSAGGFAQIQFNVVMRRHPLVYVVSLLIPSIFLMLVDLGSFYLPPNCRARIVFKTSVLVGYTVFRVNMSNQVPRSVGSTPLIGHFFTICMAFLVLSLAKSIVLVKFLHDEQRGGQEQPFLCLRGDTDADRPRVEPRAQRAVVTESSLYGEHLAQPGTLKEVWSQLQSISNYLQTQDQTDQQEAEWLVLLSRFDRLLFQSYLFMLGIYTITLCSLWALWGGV
Excerpt: [3H]granisetron competition binding, HEK293 membranes on 5-HT3AB receptor

Row | SMILES | Ki [1] [nM] | Ki [2] [nM] | pKi (A) [1] | pKi (AB) ([2]; 0.7 nM [3H]granisetron, 10 mM HEPES pH 7.4, 4 °C, at least 24 h)
1 | CCOc1nc2ccccc2nc1N1CCN(C)CC1 [compound 29, 29] | 1 | 5.75 |  | 
2 | CNC1CCN(c2nc3ccccc3nc2Cl)C1 (stereo not shown) [compound 18, 1-(3-Chloroquinoxalin-2-yl)-N-methylpyrrolidin-3-amine] | 204 | 214 |  | 
3 | CNC1CCN(c2cnc3ccccc3n2)C1 (stereo not shown) [compound 21, N-Methyl-1-(quinoxalin-2-yl)pyrrolidin-3-amine] | 32.4 | 77.6 |  | 
4 | CN1CCN(c2nc3ccccc3nc2Oc2ccccc2)CC1 [compound 31, 31] | 87.1 | 170 |  | 
5 | CN1CCN(c2nc3ccccc3[nH]c2=O)CC1 [compound 1, 3-(4-methylpiperazin-1-yl)quinoxalin-2-ol] | 1.17 | 0.437 |  | 
6 | Cc1nc2ccccc2nc1N1CCN(C)CC1 [compound 26, 26] | 2.57 | 3.8 |  | 
7 | CN1CCN(c2nc3ccccc3nc2Br)CC1 [compound 14, 2-Bromo-3-(4-methylpiperazin-1-yl)quinoxaline] | 0.49 | 1.41 |  | 
8 | CN1CCN(c2nc3ccccc3nc2OCc2ccccc2)CC1 [compound 32, 32] | 129 | 75.9 |  | 
9 | CN1CCCN(c2cnc3ccccc3n2)CC1 [compound 19, 2-(4-Methyl-1,4-diazepan-1-yl)quinoxaline] | 8.13 | 33.1 |  | 
10 | CN1CCN(c2nc3ccccc3nc2Cl)CC1 [VUF10166, 2-chloro-3-(4-methylpiperazin-1-yl)quinoxaline] |  | 12.6 | 9.82±0.26 | 
11 | CCc1nc2ccccc2nc1N1CCN(C)CC1 [compound 6, 2-Ethyl-3-(4-methylpiperazin-1-yl)quinoxaline] | 0.631 | 1.45 |  | 
12 | CN1CCN(c2nc3ccccc3nc2OC2CCCCC2)CC1 [compound 30, 30] | 537 | 195 |  | 
13 | CN1CCN(c2nc3ccccc3nc2N)CC1 [compound 10, 3-(4-Methylpiperazin-1-yl)quinoxalin-2-amine] | 2.95 | 30.9 |  | 
14 | CN1CCN(c2nc3ccc(Cl)cc3nc2Cl)CC1 [compound 23, 3,6-Dichloro-2-(4-methylpiperazin-1-yl)quinoxaline] | 1.12 | 14.1 |  | 
15 | COc1nc2ccccc2nc1N1CCN(C)CC1 [compound 28, 28] | 0.661 | 4.57 |  | 
16 | CN1CCN(c2cnc3ccccc3n2)CC1 [compound 24, 2-(4-methylpiperazin-1-yl)quinoxaline] |  |  | 8.21±0.26 | 9.13±0.30
17 | CN1CCN(c2nc3ccccc3nc2C(F)(F)F)CC1 [compound 27, 27] | 44.7 | 38 |  | 
18 | CN1CCN(c2cnc3cc(Cl)c(Cl)cc3n2)CC1 [compound 7, 6,7-Dichloro-2-(4-methylpiperazin-1-yl)quinoxaline] | 3.89 | 8.51 |  | 
19 | CN1CCN(c2nc3ccc(Cl)cc3[nH]c2=O)CC1 [compound 22, 7-chloro-3-(4-methylpiperazin-1-yl)quinoxalin-2(1H)-one] | 31.6 | 7.24 |  | 
20 | CN1CCN(c2nc3cc(Cl)c(Cl)cc3[nH]c2=O)CC1 [compound 34, 34] | 50.1 | 72.4 |  | 
21 | CN1CCCN(c2nc3ccccc3nc2Cl)CC1 [compound 16, 2-Chloro-3-(4-methyl-1,4-diazepan-1-yl)quinoxaline] | 0.776 | 4.57 |  | 
22 | CN1CCN(c2nc3cc(Cl)c(Cl)cc3nc2Cl)CC1 [compound 11, 2,6,7-Trichloro-3-(4-methylpiperazin-1-yl)quinoxaline] | 8.13 | 33.1 |  | 
23 | CN1CCN(c2cnc3cc(Cl)ccc3n2)CC1 [compound 33, 33] | 16.2 | 102 |  | 
